# Source: patent US9617271B2, “Triazolo compounds” (Hoffmann-La Roche Inc., priority 2012, dated 2017)
# Molecular target: human PDE10A (Homo sapiens (Human), UniProt Q9Y233)
# Test: human PDE10A full length assay ([3H]-cGMP SPA)
# Format: biochemical
# Conditions: human PDE10A full length enzyme, 50 nM cGMP + 50 nM [3H]-cGMP, 20 minutes at room temperature; read-out: PDE10A inhibition IC50
# Protocol: The human PDE10A full length assay was performed in 96-well micro titer plates. The reaction mixture of 50 μl contained 20 mM HEPES pH=7.5/10 mM MgCl2/0.05 mg/ml BSA (Sigma cat. #A-7906), 50 nM cGMP (Sigma, cat. #G6129) and 50 nM [3H]-cGMP (GE Healthcare, cat. #TRK392 S.A. 13.2 Ci/mmol), 3.75 ng/well PDE10A enzyme (Enzo Life Science, Lausen, Switzerland cat #SE-534) with or without a specific test compound. A range of concentrations of the potential inhibitor was used to generate data for calculating the concentration of inhibitor resulting in 50% of the effect (e.g. IC50, the concentration of the competitor inhibiting PDE10A activity by 50%). Non-specific activity was tested without the enzyme. The reaction was initiated by the addition of the substrate solution (cGMP and [3H]-cGMP) and allowed to progress for 20 minutes at room temperature. The reaction was terminated by adding 25 μl of YSi-SPA scintillation beads (GE Healthcare, cat. #RPNQ0150) in 18 mM zinc sulphate solution (stop reagent). After 1 h under shaking, the plate was centrifuged one minute at 170 g to allow beads to settle. Afterwards, radioactive counts were measured on a Perkin Elmer TopCount Scintillation plate reader.
# human PDE10A, sequence (Q9Y233 other isoform, or with tags, fused parts or gaps): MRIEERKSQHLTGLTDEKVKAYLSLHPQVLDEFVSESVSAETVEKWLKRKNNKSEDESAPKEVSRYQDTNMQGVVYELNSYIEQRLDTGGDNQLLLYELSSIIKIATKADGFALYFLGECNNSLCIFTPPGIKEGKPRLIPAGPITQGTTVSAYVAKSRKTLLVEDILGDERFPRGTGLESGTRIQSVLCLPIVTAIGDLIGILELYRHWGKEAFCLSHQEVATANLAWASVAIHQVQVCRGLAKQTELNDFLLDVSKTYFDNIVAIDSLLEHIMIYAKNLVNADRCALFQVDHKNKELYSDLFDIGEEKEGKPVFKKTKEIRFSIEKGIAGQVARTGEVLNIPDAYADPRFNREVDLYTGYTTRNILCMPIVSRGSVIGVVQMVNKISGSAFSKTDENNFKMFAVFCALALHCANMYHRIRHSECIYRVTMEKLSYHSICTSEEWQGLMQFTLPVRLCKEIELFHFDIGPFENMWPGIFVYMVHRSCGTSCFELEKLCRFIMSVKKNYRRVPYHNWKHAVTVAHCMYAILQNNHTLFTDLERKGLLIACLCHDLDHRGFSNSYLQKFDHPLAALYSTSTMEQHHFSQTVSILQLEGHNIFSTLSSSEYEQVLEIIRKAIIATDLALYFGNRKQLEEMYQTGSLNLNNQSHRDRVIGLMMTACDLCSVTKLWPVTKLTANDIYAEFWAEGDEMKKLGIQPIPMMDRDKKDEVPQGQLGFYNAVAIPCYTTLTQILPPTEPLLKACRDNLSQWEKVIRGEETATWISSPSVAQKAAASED
row,Compound,IC50 [nM]
1,"Cc1nc2cc(C3CCC3)c(C#Cc3nc(N4CCCC4)nn3C)nn2c1C [Example 51, 7-Cyclobutyl-2,3-dimethyl-6-((1-methyl-3-(pyrrolidin-1-yl)-1H-1,2,4-triazol-5-yl)ethynyl)imidazo[1,2-b]pyridazine]",0.6
2,"CCN(CC)c1nc(CCc2nc(N3CCCC3)nn2C)nn2c(C)c(C)nc12 [Example 35, N,N-Diethyl-6,7-dimethyl-2-(2-(1-methyl-3-(pyrrolidin-1-yl)-1H-1,2,4-triazol-5-yl)ethyl)imidazo[1,2-f][1,2,4]triazin-4-amine]",1.41
3,"Cc1nc2cc(C(C)C)c(C#Cc3nc(N4CCCC4)nn3C)nn2c1C [Example 50, 7-Isopropyl-2,3-dimethyl-6-((1-methyl-3-(pyrrolidin-1-yl)-1H-1,2,4-triazol-5-yl)ethynyl)imidazo[1,2-b]pyridazine]",2.6
4,"Cc1nc2c(OC(C)C)cc(/C=C/c3nc(N4CCCC4)nn3C)nn2c1C [Example 26, (E)-8-Isopropoxy-2,3-dimethyl-6-(2-(1-methyl-3-(pyrrolidin-1-yl)-1H-1,2,4-triazol-5-yl)vinyl)imidazo[1,2-b]pyridazine]",0.493
5,"COc1cc(CCc2nc(N3CCCC3)nn2C)nn2c(C)c(C)nc12 [Example 12, 8-Methoxy-2,3-dimethyl-6-(2-(1-methyl-3-(pyrrolidin-1-yl)-1H-1,2,4-triazol-5-yl)ethyl)imidazo[1,2-b]pyridazine]",3
6,"Cc1c(C(F)(F)F)nc2ccc(CCc3nc(N4CCCC4)nn3C)nn12 [Example 1, 3-Methyl-6-(2-(1-methyl-3-(pyrrolidin-1-yl)-1H-1,2,4-triazol-5-yl)ethyl)-2-(trifluoro-methyl)imidazo[1,2-b]pyridazine]",12
7,"CNC(=O)c1cc(C#Cc2nc(N3CCCC3)nn2C)nn2c(C)c(C(F)(F)F)nc12 [Example 69, N,3-Dimethyl-6-((1-methyl-3-(pyrrolidin-1-yl)-1H-1,2,4-triazol-5-yl)ethynyl)-2-(trifluoromethyl)imidazo[1,2-b]pyridazine-8-carboxamide]",2.1
8,"Cc1c(C(F)(F)F)nc2ccc(OCc3nc(N4CCCC4)nn3C)nn12 [Example 23, 3-Methyl-6-((1-methyl-3-(pyrrolidin-1-yl)-1H-1,2,4-triazol-5-yl)methoxy)-2-(trifluoro-methyl)imidazo[1,2-b]pyridazine]",290
9,"Cc1cn2nc(C#Cc3nc(N4CCCC4)nn3C)ccc2n1 [Example 67, 2-Methyl-6-((1-methyl-3-(pyrrolidin-1-yl)-1H-1,2,4-triazol-5-yl)ethynyl)imidazo[1,2-b]pyridazine]",10.2
10,"Cc1nc2c(NC(C)C)nc(CCc3nc(N4CCCC4)nn3C)nn2c1C [Example 31, N-Isopropyl-6,7-dimethyl-2-(2-(1-methyl-3-(pyrrolidin-1-yl)-1H-1,2,4-triazol-5-yl)ethyl)imidazo[1,2-f][1,2,4]triazin-4-amine]",3
11,"Cc1nc2ccc(CCc3nc(N4CCCC4)nn3C)nn2c1C [Example 2, 2,3-Dimethyl-6-(2-(1-methyl-3-(pyrrolidin-1-yl)-1H-1,2,4-triazol-5-yl)ethyl)-imidazo[1,2-b]pyridazine]",11
12,"Cc1nnc2ccc(CCc3nc(N4CCCC4)nn3C)nn12 [Example 57, 3-Methyl-6-(2-(1-methyl-3-(pyrrolidin-1-yl)-1H-1,2,4-triazol-5-yl)ethyl)[1,2,4]triazolo[4,3-b]pyridazine]",534
13,"COc1cc(/C=C/c2nc(N3CCCC3)nn2C)nn2c(C)c(C(F)(F)F)nc12 [Example 9, (E)-8-methoxy-3-methyl-6-(2-(1-methyl-3-(pyrrolidin-1-yl)-1H-1,2,4-triazol-5-yl)vinyl)-2-(trifluoromethyl)imidazo[1,2-b]pyridazine]",1
14,"Cc1nc2c(C3CCC3)cc(CCc3nc(N4CCCC4)nn3C)nn2c1C [Example 48, 8-Cyclobutyl-2,3-dimethyl-6-(2-(1-methyl-3-(pyrrolidin-1-yl)-1H-1,2,4-triazol-5-yl)ethyl)imidazo[1,2-b]pyridazine]",2.3
15,"Cn1nc(N2CCCC2)nc1C#Cc1ccc2nc(Cl)cn2n1 [Example 36, 2-Chloro-6-((1-methyl-3-(pyrrolidin-1-yl)-1H-1,2,4-triazol-5-yl)ethynyl)imidazo[1,2-b]pyridazine]",56
16,"Cc1nc2c(N(C)C)nc(CCc3nc(N4CCCC4)nn3C)nn2c1C [Example 22, N,N,6,7-Tetramethyl-2-(2-(1-methyl-3-(pyrrolidin-1-yl)-1H-1,2,4-triazol-5-yl)ethyl)-imidazo[1,2-f][1,2,4]triazin-4-amine]",2
17,"Cc1nc2c(Cl)nc(CCc3nc(N4CCCC4)n(C)n3)nn2c1C [Example 20, 4-Chloro-6,7-dimethyl-2-(2-(1-methyl-5-(pyrrolidin-1-yl)-1H-1,2,4-triazol-3-yl)ethyl)-imidazo[1,2-f][1,2,4]triazine]",11

row,Compound,IC50 [nM]
1,"Cc1nn2ccc(CCc3nc(N4CCCC4)nn3C)nc2c1C [Example 53, 2,3-dimethyl-5-(2-(1-methyl-3-(pyrrolidin-1-yl)-1H-1,2,4-triazol-5-yl)ethyl)pyrazolo[1,5-a]pyrimidine]",2.1
2,"COc1cc(CCc2nc(N3CCCC3)nn2C)nn2c(C)c(C(F)(F)F)nc12 [Example 10, 8-Methoxy-3-methyl-6-(2-(1-methyl-3-(pyrrolidin-1-yl)-1H-1,2,4-triazol-5-yl)ethyl)-2-(trifluoromethyl)imidazo[1,2-b]pyridazine]",2
3,"Cc1nc2ccc(C#Cc3nc(N4CCCC4)nn3C)nn2c1Cl [Example 65, 3-Chloro-2-methyl-6-((1-methyl-3-(pyrrolidin-1-yl)-1H-1,2,4-triazol-5-yl)ethynyl)imidazo[1,2-b]pyridazine]",2.5
4,"Cc1c(Cl)nc2ccc(C#Cc3nc(N4CCCC4)nn3C)nn12 [Example 38, 2-Chloro-3-methyl-6-((1-methyl-3-(pyrrolidin-1-yl)-1H-1,2,4-triazol-5-yl)ethynyl)-imidazo[1,2-b]pyridazine]",1.33
5,"Cc1cc(C#Cc2nc(N3CCCC3)nn2C)nn2c(C)c(C(F)(F)F)nc12 [Example 54, 3,8-Dimethyl-6-((1-methyl-3-(pyrrolidin-1-yl)-1H-1,2,4-triazol-5-yl)ethynyl)-2-(trifluoro-methyl)imidazo[1,2-b]pyridazine]",1.6
6,"Cc1nn2ccc(C#Cc3nc(N4CCCC4)nn3C)nc2c1C [Example 52, 2,3-Dimethyl-5-((1-methyl-3-(pyrrolidin-1-yl)-1H-1,2,4-triazol-5-yl)ethynyl)pyrazolo[1,5-a]pyrimidine]",2.6
7,"Cc1cn2nc(CCc3nc(N4CCCC4)nn3C)ccc2n1 [Example 68, 2-Methyl-6-(2-(1-methyl-3-(pyrrolidin-1-yl)-1H-1,2,4-triazol-5-yl)ethyl)imidazo[1,2-b]pyridazine]",146
8,"Cc1c(C(F)(F)F)nn2ccc(C#Cc3nc(N4CCCC4)nn3C)nc12 [Example 71, 3-Methyl-5-[2-(2-methyl-5-pyrrolidin-1-yl-1,2,4-triazol-3-yl)ethynyl]-2-(trifluoromethyl)pyrazolo[1,5-a]pyrimidine]",8.7
9,"Cc1cc(CCc2nc(N3CCCC3)nn2C)nn2c(C)c(C(F)(F)F)nc12 [Example 55, 3,8-Dimethyl-6-(2-(1-methyl-3-(pyrrolidin-1-yl)-1H-1,2,4-triazol-5-yl)ethyl)-2-(trifluoro-methyl)imidazo[1,2-b]pyridazine]",16.8
10,"Cc1nc2ccc(CCc3nc(N4CCCC4)nn3C)nn2c1CO [Example 21, (2-Methyl-6-(2-(1-methyl-3-(pyrrolidin-1-yl)-1H-1,2,4-triazol-5-yl)ethyl)imidazo[1,2-b]-pyridazin-3-yl)methanol]",194
11,"Cc1nc2c(C3CC3)cc(CCc3nc(N4CCCC4)nn3C)nn2c1C [Example 49, 8-Cyclopropyl-2,3-dimethyl-6-(2-(1-methyl-3-(pyrrolidin-1-yl)-1H-1,2,4-triazol-5-yl)ethyl)imidazo[1,2-b]pyridazine]",2.9
12,"Cc1nnc2ccc(C#Cc3nc(N4CCCC4)nn3C)nn12 [Example 56, 3-Methyl-6-((1-methyl-3-(pyrrolidin-1-yl)-1H-1,2,4-triazol-5-yl)ethynyl)[1,2,4]triazolo-[4,3-b]pyridazine]",38.2
13,"Cc1nc2c(S(C)(=O)=O)cc(C#Cc3nc(N4CCCC4)nn3C)nn2c1C [Example 29, 2,3-Dimethyl-6-((1-methyl-3-(pyrrolidin-1-yl)-1H-1,2,4-triazol-5-yl)ethynyl)-8-(methylsulfonyl)imidazo[1,2-b]pyridazine]",5
14,"Cc1c(C#N)nc2ccc(/C=C/c3nc(N4CCCC4)nn3C)nn12 [Example 3, 3-Methyl-6-[(E)-2-(2-methyl-5-pyrrolidin-1-yl-2H-[1,2,4]triazol-3-yl)vinyl]-imidazo[1,2-b]pyridazine-2-carbonitrile]",5
15,"Cc1nc2ccc(OCc3nc(N4CCCC4)nn3C)nn2c1C [Example 30, 2,3-Dimethyl-6-((1-methyl-3-(pyrrolidin-1-yl)-1H-1,2,4-triazol-5-yl)methoxy)imidazo[1,2-b]pyridazine]",98
16,"Cc1c(C(F)F)nc2ccc(C#Cc3nc(N4CCCC4)nn3C)nn12 [Example 7, 2-(Difluoromethyl)-3-methyl-6-((1-methyl-3-(pyrrolidin-1-yl)-1H-1,2,4-triazol-5-yl)ethynyl)imidazo[1,2-b]pyridazine]",5
